Laboratory results reported in the NIST ThermoML archive (doi:10.1016/j.fluid.2008.03.004).

Test: xn = mol fraction of the nth substance listed
Settings: 101 kPa, Liquid; for speed of sound: Sing-around technique in a fixed-path interferometer

Cc1ccccc1C [1,2-dimethylbenzene] + COC(C)(C)C
Settings | mass density, 295.65 K [kg/m3] | mass density, 298.15 K [kg/m3] | mass density, 300.65 K [kg/m3] | mass density, 303.15 K [kg/m3] | speed of sound, 298.15 K [m/s] | speed of sound, 300.65 K [m/s] | speed of sound, 303.15 K [m/s] | speed of sound, 305.65 K [m/s]
x2 = 0 | – | 874.968 | 872.865 | 870.759 | 1341.5 | 1331.2 | 1321 | 1310.8
x2 = 0.052 | – | 868.242 | 866.116 | 863.985 | 1334.2 | 1323.9 | 1313.7 | 1303.6
x2 = 0.101 | – | 862.253 | 860.108 | 857.959 | 1319.6 | 1309.4 | 1299.2 | 1289
x2 = 0.203 | – | 848.937 | 846.749 | 844.558 | 1290.6 | 1280.2 | 1269.8 | 1259.5
x2 = 0.303 | – | 835.714 | 833.484 | 831.25 | 1260.1 | 1249.6 | 1239.1 | 1228.6
x2 = 0.401 | – | 822.702 | 820.426 | 818.144 | 1231.1 | 1220.3 | 1209.7 | 1199
x2 = 0.499 | 811.273 | 808.953 | 806.626 | 804.296 | 1199.9 | 1189.1 | 1178.4 | 1167.7
x2 = 0.604 | 796.444 | 794.069 | 791.685 | 789.298 | 1168.2 | 1157.2 | 1146.3 | 1135.3
x2 = 0.707 | 781.567 | 779.131 | 776.688 | 774.237 | 1134.3 | 1123.2 | 1112.1 | 1101
x2 = 0.8 | 767.869 | 765.379 | 762.882 | 760.378 | 1102.7 | 1091.4 | 1080.2 | 1069
x2 = 0.9 | 752.717 | 750.16 | 747.591 | 745.002 | 1073.7 | 1062.2 | 1050.7 | 1038.7
x2 = 0.95 | 744.871 | 742.284 | 739.686 | 737.076 | 1052.9 | 1041.5 | 1030 | 1018.6
